Test results taken from patent publication US20260272895A1, “METHODS AND KITS FOR DELIVERY OF COMPOUNDS INTO CELLS” (Yale University, priority 2023, published 2026).

Target: T1, Slco1a4 (Mus musculus, UniProt Q9EP96)
T1 sequence (Q9EP96 1-670): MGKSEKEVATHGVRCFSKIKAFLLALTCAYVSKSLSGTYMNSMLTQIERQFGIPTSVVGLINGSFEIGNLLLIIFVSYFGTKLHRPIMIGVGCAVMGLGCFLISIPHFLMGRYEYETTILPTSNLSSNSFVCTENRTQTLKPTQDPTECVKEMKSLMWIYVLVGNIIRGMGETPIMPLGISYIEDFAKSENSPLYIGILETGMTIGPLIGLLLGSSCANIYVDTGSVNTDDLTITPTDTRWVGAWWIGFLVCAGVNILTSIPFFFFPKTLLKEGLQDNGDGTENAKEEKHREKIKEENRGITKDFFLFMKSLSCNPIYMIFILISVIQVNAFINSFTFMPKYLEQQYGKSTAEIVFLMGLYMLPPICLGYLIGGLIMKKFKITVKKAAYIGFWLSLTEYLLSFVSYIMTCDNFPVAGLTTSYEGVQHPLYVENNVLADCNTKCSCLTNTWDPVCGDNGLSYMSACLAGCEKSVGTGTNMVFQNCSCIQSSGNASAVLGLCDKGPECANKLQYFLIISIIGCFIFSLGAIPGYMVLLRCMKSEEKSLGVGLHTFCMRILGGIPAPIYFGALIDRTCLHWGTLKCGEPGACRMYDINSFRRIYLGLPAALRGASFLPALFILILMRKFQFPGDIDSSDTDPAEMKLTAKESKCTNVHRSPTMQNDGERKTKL
Assay: In vivo two-photon imaging in Slco1a4 knockout mice (Oatp1a/1b cluster knockout)
Design: FLAG; expressed in transfected cells; host or cells: cortical neurons of live mice, in utero electroporation at E14/E15
Procedure: Briefly, animals are anaesthetized via intraperitoneal injections of ketamine/xylazine or via inhaled isoflurane. A region of the skull (3×3 mm) is gently removed with a high-speed drill and the underlying dura is removed. A small glass coverslip is placed over the skull to allow long term optical access for in vivo imaging. Labeling with fluorescent dyes is performed either via intravenous injections or topically application to the cortical surface for 20 min prior to glass cover placement. After recovery, in vivo images are acquired using a two-photon microscope (Bruker Technologies) equipped with a multimodal (fixed wavelength 1040 nm and tunable wavelength) InSight X3 two-photon laser (Spectra Physics) and 20× water immersion objective (Zeiss 1.0N.A.). The two-photon laser is appropriately tuned to excite particular fluorescent dyes and proteins as needed. In selected cases, following in vivo imaging, mice will be sacrificed and perfused for follow up immunohistochemistry and high-resolution confocal imaging (Leica SP8) to further confirm colocalization of dyes and cells expressing particular transporters.
One-month-old wild-type mice were anesthetized using a ketamine/xylazine solution at doses of 100 mg/kg and 10 mg/kg, respectively. The fur around the skull area was shaved, and buprenex (0.1 mg per kg) and carprofen (5 mg per kg) were administered subcutaneously. Mice were kept on a heating pad at 37° C., and anesthesia was periodically monitored. The skin was treated with povidone-iodine solution, followed by cleaning with ethanol, and eye ointment was applied. A small skin section was excised to expose the skull. Thinning of the skull was performed in a circular area, followed by delicately lifting of the remaining skull without harm to the underlying brain. Within the circular region, the dura was gently removed using fine forceps, and a 4 mm cover glass was softly pressed onto the brain surface and affixed to the skull. […]

Row | SMILES | astrocyte uptake in knockout mice (Oatp1a/1b cluster knockout) | endothelial uptake in Slco1a4 knockout mice (application to cortical surface, concentration not given) | endothelial uptake in Slco1a4 knockout mice (topical cortical administration 50 μM, compared to wildtype)
1 | O=S(=O)([O-])c1cc(S(=O)(=O)O)ccc1C1=c2cc3c4c(c2Oc2cc(Br)ccc21)CCC[N+]=4CCC3 [Compound 1, 2-(12-bromo-1,2,3,5,6,7-hexahydrochromeno[2,3-f]pyrido[3,2,1-ij]quinolin-4-ium-9-yl)-5-sulfobenzenesulfonate] | Astrocyte uptake is seen in the knockout mice | complete disappearance of endothelial uptake | –
2 | COc1cc2c(c(OC)c1OC)-c1ccc(OC)c(=O)cc1C(NS(=O)(=O)c1ccc(-c3c4ccc(N(C)C)cc4[o+]c4cc(N(C)C)ccc34)c(S(=O)(=O)[O-])c1)CC2 (stereo not drawn) [Compound 47, 2-(3,6-bis(dimethylamino)xanthylium-9-yl)-5-(N-(1,2,3,10-tetramethoxy-9-oxo-5,6,7,9-tetrahydrobenzo[a]heptalen-7-yl)sulfamoyl)benzenesulfonate] | – | – | complete elimination of Colchicine-eEDiTS uptake
